Source: patent publication US6153589A, “2,3-epoxy alcohols, acids and derivatives as anti retroviral chemotherapeutic agents” (The United States of America as represented by the …, priority 1992, dated 2000)
Read-outs that look alike come from different tables or passages of the source. Where a SMILES comes first, the peptide text is derived from it. [ ]: non-standard residue; d: D form. The star is where a group is joined. Sta = CC(C)C[C@H](N)[C@@H](O)CC(=O)O; Isovaleryl = CC(C)CC(=O)*

Key:
HIV-2 protease = experiment: HIV protease cleavage of nonapeptide (HPLC); assay type: biochemical; details: 0.5 μl of 10 μg/μl inhibitor in DMSO per 10 μl reaction; pH 6.5, room temperature; pentapeptide product relative to DMSO control; sampled at ca. 16 and 40 hr (time not given)
Protocol: Activity Against HIV Protease
The assay for proteolyic activity is a modified version of that previously described by Copeland et al., Gene Anal. Tech., 5:109-115 (1988). For each assay to be performed 2 microliters of protease solution (ca. 100 ng) is added to 3 μg of nonapeptide (Val-Ser-Gln-Asn-Tyr-Pro-Ile-Val-Gln-NH2) in 8 μl of 200 mM sodium phosphate, 1 M NaCl, 5% glycerol, 0.25% Nonidet-40, at pH 6.5. This affords a stock solution containing 10 μl per number of reactions. This stock is aliquoted out in 10 μl portions to which 0.5 μl of DMSO (a control is run with each set of assays to compensate for minor experimental variations) or a DMSO solution containing 10 μg/μl of an inhibitor, i.e., any one of the compounds of the present invention, is added. The reactions were incubated at room temperature and 4 μl portions were removed at ca. 16 and 40 hr. intervals. HPLC analysis was performed on a 4.6×250 mm Lichrosorb RP-18 column eluted with a gradient of 0-40% acetonitrile in water (containing 0.05% TFA) over 30 min monitoring absorbance at 206 nm. Progress of the enzymatic cleavage was followed by monitoring the appearance of the pentapeptide (Val-Ser-Gln-Asn-Tyr-OH) cleavage product. The activity is expressed as the amount of the pentapeptide (Val-Ser-Gln-Asn-Tyr-OH) observed relative to the control reaction for that set of assays.
Inhibition of HIV-2 protease

HIV1 IIIb = experiment: microbe, parasite or virus in culture; assay type: cell-based; details: Human immunodeficiency virus 1, IIIB; for viability at 50 µg/mL: 50 ug/ml; for viability at 4.9 µg/mL: 4.9 ug/ml; for viability at 2.9 µg/mL: 2.9 ug/ml; for viability at 21 µg/mL: 21 ug/ml; for viability at 10 µg/mL: 10 ug/ml; for viability at 0.1 µg/mL: 0.1 ug/ml; for viability at 1 µg/mL: 1 ug/ml
Description: In-vitro Screening Anti--HIV XTT Assay
This assay, which is available to the public by the National Cancer Institute, utilizes colorimetry based on the production of a colored formazin from a tetrazolium salt by viable cells, to develop a safe, rapid and quantitative measure of HIV cytopathology. The assay is a modification of the previously described screening method for the detection of anti-tumor drug cytotoxicity (D. A. Scudiero, et al, Cancer Res, 48, 4827-4833 (1988)). It involves the plating of susceptible human "host" cells with and without virus in microculture plates, adding various concentrations of the respective test compounds, incubating the plates for seven days, during which time infected, non-drug treated control cells are largely or totally destroyed by the virus. The number of remaining viable cells are determined utilizing a calorimetric endpoint. A beneficial antiviral effect is indicated by a response % grater than the virus kill %, with 100% being optimal.
Anti-viral effect: Response (Viable Cells, determined by colorometric
absorbance of formazan dye produced) as % of uninfected controls
Virus Source: HIV1 IIIb; C, Virus producing H9 cells; V, cell free virus
Virus Kill: Infected untreated cells as % of uninfected cell controls
*: Culture redosed with compound after 3 days

## CCCCCCCCCCC[C@@H]1O[C@@H]1CO (relative stereo) [2-cis-Undecyloxirane methanol]
HIV-2 protease
  Percent Control Cleavage of Nonapeptide HIV-1 Cleavage Site Fragment: 104%

## CCCCCCCCCCC[C@H]1O[C@@H]1CO (relative stereo) [2-trans-Undecyloxirane methanol]
HIV-2 protease
  Percent Control Cleavage of Nonapeptide HIV-1 Cleavage Site Fragment: 88%

## CCCCCCC[C@H]1O[C@H]1C (relative stereo) [Example 43, cis-2-Epoxydecene]
HIV-2 protease
  Percent Control Cleavage of Nonapeptide HIV-1 Cleavage Site Fragment: 102%

## CCCCCCC/C=C\CO [Example 3, cis-2-Decen-1-ol]
HIV-2 protease
  Percent Control Cleavage of Nonapeptide HIV-1 Cleavage Site Fragment: 105%

## CCCCCCCCC[C@@H]1O[C@@H]1CO [Example 12, (2R-cis)-3-Nonyloxirane Methanol]
HIV1 IIIb; 168 h, read-out: Antiviral Effect (viable cells as % of uninfected controls), run 8, source V (cell free virus), virus kill 27.0%
  viability at 50 µg/mL: 56.9%
HIV1 IIIb; 168 h, read-out: Antiviral Effect (viable cells as % of uninfected controls), run 9, source V (cell free virus), virus kill 53.0%
  viability at 4.9 µg/mL: 82.4%
HIV1 IIIb; 168 h, read-out: Antiviral Effect (viable cells as % of uninfected controls), run 10, source V (cell free virus), virus kill 55.0%
  viability at 2.9 µg/mL: 82.9%
HIV1 IIIb; 168 h, read-out: Antiviral Effect (viable cells as % of uninfected controls), run 11, 49 ug/ml, source V (cell free virus), virus kill 30.0%
  viability at 49 µg/mL: 54.9%
HIV1 IIIb; 168 h, read-out: Antiviral Effect (viable cells as % of uninfected controls), run 12, source V (cell free virus), virus kill 36.0%
  viability at 2.9 µg/mL: 62.2%
HIV1 IIIb; 168 h, read-out: Antiviral Effect (viable cells as % of uninfected controls), run 13, source V (cell free virus), virus kill 19.5%
  viability at 21 µg/mL: 53.4%
HIV1 IIIb; 168 h, read-out: Antiviral Effect (viable cells as % of uninfected controls), run 14, source V (cell free virus), virus kill 24.0%
  viability at 21 µg/mL: 98.7%
HIV1 IIIb; H9, 168 h, read-out: Antiviral Effect (viable cells as % of uninfected controls), run 1, source C (virus producing H9 cells), virus kill 6.0%
  viability at 10 µg/mL: 75.1%
HIV1 IIIb; H9, 168 h, read-out: Antiviral Effect (viable cells as % of uninfected controls), run 2, source C (virus producing H9 cells), virus kill 27.0%
  viability at 10 µg/mL: 71.3%
HIV1 IIIb; H9, 168 h, read-out: Antiviral Effect (viable cells as % of uninfected controls), run 3, source C (virus producing H9 cells), virus kill 16.0%
  viability at 50 µg/mL: 32.1%
HIV1 IIIb; H9, 168 h, read-out: Antiviral Effect (viable cells as % of uninfected controls), run 4, source C (virus producing H9 cells), virus kill 16.0%
  viability at 4.9 µg/mL: 31.6%
HIV1 IIIb; H9, 168 h, read-out: Antiviral Effect (viable cells as % of uninfected controls), run 5, source C (virus producing H9 cells), virus kill 15.0%
  viability at 2.9 µg/mL: 23.1%
HIV1 IIIb; H9, 168 h, read-out: Antiviral Effect (viable cells as % of uninfected controls), run 6, source C (virus producing H9 cells), virus kill 11.0%
  viability at 4.9 µg/mL: 16.7%
HIV1 IIIb; H9, 168 h, read-out: Antiviral Effect (viable cells as % of uninfected controls), run 7, 29 ug/ml, source C (virus producing H9 cells), virus kill 11.0%
  viability at 29 µg/mL: 15.7%
HIV-2 protease
  Percent Control Cleavage of Nonapeptide HIV-1 Cleavage Site Fragment: 96%

## OC[C@@H]1O[C@@H]1COCc1ccccc1 [Example 13, (2S-cis)-3-(Benzyloxymethyl)oxirane Methanol]
HIV1 IIIb; 168 h, read-out: Antiviral Effect (viable cells as % of uninfected controls), run 4, source V (cell free virus), virus kill 55.0%
  viability at 0.1 µg/mL: 50%
HIV1 IIIb; 168 h, read-out: Antiviral Effect (viable cells as % of uninfected controls), run 5, source V (cell free virus), virus kill 27.0%
  viability at 0.1 µg/mL: 52.5%
HIV1 IIIb; 168 h, read-out: Antiviral Effect (viable cells as % of uninfected controls), run 6, 4.4 ug/ml, source V (cell free virus), virus kill 24.0%
  viability at 4.4 µg/mL: 28.4%
HIV1 IIIb; 168 h, read-out: Antiviral Effect (viable cells as % of uninfected controls), run 7*, 0.44 ug/ml, source V (cell free virus), virus kill 27.0%, culture redosed with compound after 3 days
  viability at 0.44 µg/mL: 30.1%
HIV1 IIIb; H9, 168 h, read-out: Antiviral Effect (viable cells as % of uninfected controls), run 1, source C (virus producing H9 cells), virus kill 21.0%
  viability at 0.1 µg/mL: 22.1%
HIV1 IIIb; H9, 168 h, read-out: Antiviral Effect (viable cells as % of uninfected controls), run 2, source C (virus producing H9 cells), virus kill 13.0%
  viability at 1 µg/mL: 15.7%
HIV1 IIIb; H9, 168 h, read-out: Antiviral Effect (viable cells as % of uninfected controls), run 3, source C (virus producing H9 cells), virus kill 11.0%
  viability at 1 µg/mL: 10.2%
HIV-2 protease
  Percent Control Cleavage of Nonapeptide HIV-1 Cleavage Site Fragment: 81%

## CCCCCCCCC[C@@H]1O[C@H]1CO [Example 29, (2S-trans)-3-Nonyloxirane Methanol]
HIV-2 protease
  Percent Control Cleavage of Nonapeptide HIV-1 Cleavage Site Fragment: 106%

## CCCCCCCCC[C@H]1O[C@@H]1CO [Example 30, (2R-trans)-3-Nonyloxirane Methanol]
HIV-2 protease
  Percent Control Cleavage of Nonapeptide HIV-1 Cleavage Site Fragment: 105%

## CCCCCCCCCCC[C@@H]1O[C@H]1CO [Example 31, (2S-trans)-3-Undecyloxirane Methanol]
HIV-2 protease
  Percent Control Cleavage of Nonapeptide HIV-1 Cleavage Site Fragment: 95%

## CCCCCCCCCCC[C@H]1O[C@@H]1CO [Example 32, (2R-trans)-3-Undecyloxirane Methanol]
HIV-2 protease
  Percent Control Cleavage of Nonapeptide HIV-1 Cleavage Site Fragment: 98%

## CCCCCCC[C@@H]1O[C@H]1CO [Example 33, (2S-trans)-3-heptyloxirane Methanol]
HIV-2 protease
  Percent Control Cleavage of Nonapeptide HIV-1 Cleavage Site Fragment: 105%

## CCCCCCC[C@H]1O[C@@H]1CO [Example 34, (2R-trans)-3-Heptyloxirane Methanol]
HIV-2 protease
  Percent Control Cleavage of Nonapeptide HIV-1 Cleavage Site Fragment: 104%

## CCCCCCC[C@H]1O[C@H]1C(=O)O [Example 37, (2R-cis)-3-Heptyloxirane Carboxylic Acid]
HIV-2 protease
  Percent Control Cleavage of Nonapeptide HIV-1 Cleavage Site Fragment: 104%

## CCCCCCC[C@@H]1O[C@@H]1C(=O)O [Example 38, (2S-cis)-3-Heptyloxiranecarboxylic Acid]
HIV-2 protease
  Percent Control Cleavage of Nonapeptide HIV-1 Cleavage Site Fragment: 105%

## CCCCCCCCC[C@H]1O[C@H]1C(=O)N1CCC[C@H]1C(=O)OC [Example 41, N-(2R-cis)-3-Nonyloxiraneacyl L-proline Methyl Ester]
HIV-2 protease
  Percent Control Cleavage of Nonapeptide HIV-1 Cleavage Site Fragment: 24%

## CCCCCCCCC[C@H]1O[C@H]1C(=O)N(CC)CC [Example 42, N,N-Diethyl-(2R-cis)-3-nonyloxiranecarboxy Amide]
HIV-2 protease
  Percent Control Cleavage of Nonapeptide HIV-1 Cleavage Site Fragment: 77%

## CCCCCCCCCCCCCC(=O)O [Myristic Acid, reference compound]
HIV-2 protease
  Percent Control Cleavage of Nonapeptide HIV-1 Cleavage Site Fragment: 111%

## CC(C)CC(=O)N[C@H](C(=O)N[C@H](C(=O)N[C@@H](CC(C)C)[C@@H](O)CC(=O)N[C@@H](C)C(=O)N[C@@H](CC(C)C)[C@@H](O)CC(=O)O)C(C)C)C(C)C [Pepstatin A, reference compound] (Isovaleryl-VV[Sta]A[Sta]-OH)
HIV-2 protease
  Percent Control Cleavage of Nonapeptide HIV-1 Cleavage Site Fragment: 1%
